In patent US10206896B2, “Method of treating delayed healing of a wound associated with diabetes” (KUWAIT UNIVERSITY, priority 2014, dated 2019):

How the values were obtained:
[1] = system: diabetic fibroblasts (DFs); test: BrdU incorporation into DNA (cell proliferation) in diabetic fibroblasts; assay type: cell-based, GotoKakizaki (GK) rat; conditions: treated DFs compared with DFs
Procedure: (§1) Cell culture and HP treatment.
(§2) Assessment of key fibroblast functions essential for wound healing. To assess cell proliferation, fibroblasts were seeded into a 96-well plate at a density of 1×10^4 per well and were allowed to adhere overnight in DMEM medium supplemented with 10% FCS. After arrest by incubation in serum-free medium for 24 hours, the cells were exposed to growth factors, and the incorporation of bromodeoxyuridine (BrdU) into DNA was determined using the manufacturer's protocol (Roche Diagnostics). Similarly, for the in vitro wound (migration) experiments, cultured fibroblasts were grown in six-well plates until they reached confluence. The medium was removed, the cells were washed with PBS 3× before culturing was continued in serum-free DMEM containing 0.5% BSA for an additional 24 hours. Thereafter, the monolayer was artificially wounded by using a pipette tip to scratch across the plate; the cells were washed with PBS to remove the detached cells and then cultured in serum-free medium in the presence of mitomyocin C (10 μg/ml) to prevent cell proliferation. The rate of wound healing was quantified as described in the literature

[2] = system: circular wound of a diabetic rat; test: Full-thickness excisional circular wound, rate of wound closure; assay type: in vivo, GotoKakizaki (GK) rat; conditions: composition of 30 μM 18α-GA and pluronic acid applied to the wound
Procedure: Wound model, drug treatment and macroscopic evaluation. All of the animal procedures were performed in accordance with the NIH Guidance for the Care and Use of Laboratory Animals. Female GotoKakizaki rats (GK) were used in the current study. Detailed information regarding this animal model for non-obese type 2 diabetes has been previously described. Weight and age-matched female Wistar rats (Kuwait University breeding colony) served as the corresponding controls. All of the animals were maintained under standard conditions with a 12 hour on/off light cycle, commercial diet, and water ad libitum. […]
The targeted depletion of caveolin-1 was achieved using the antisense vivo-morpholino oligomers (MOs) that were synthesized and designed by Gene Tools, LLC (Eugene, Oreg.). […] The specificity of the cav-1 morphant phenotype was determined using rat caveolin-1 cRNA that lacked the antisense MO binding site. […] The wound area was analyzed using Adobe Photoshop (version 7.0; Adobe Systems), and the percentage of wound closure was derived by the following formula: (1−[current wound size/initial wound size])×100. […]
Full-thickness excisional wounds were induced in the control and GK (a non-obese genetic model of type 2 diabetes), and key parameters related to cellular senescence, caveolin-1 signaling and oxidative stress were measured 10 days post-injury. […]

[3] = system: diabetic fibroblasts (DFs)
Procedure: Cell culture and HP treatment. Primary dermal fibroblasts cell lines were established from the dorsal skin of female GotoKakizaki (GK; age 12-15 months) rat, a model for non-obese type 2 diabetes (DFs) and their Wistar control counterparts (CFs). Briefly, the dermis was cut into small pieces and incubated in Dulbecco's modified Eagle medium (DMEM; Invitrogen) containing collagenase (250 U/ml; Sigma) for 30 minutes at 37° C. in 5% CO2 with constant agitation. The sections were triturated vigorously to release fibroblasts, and these cells were collected by centrifugation. […]
Senescence-associated β-galactosidase staining and quantification assays. The senescence-associated β-galactosidase (SA-β-gal) activity was determined using a senescence β-gal staining kit (Cell Signaling Technology). […] For a prices quantification of β-gal activity, the rate of conversion of 4-methylumbelliferyl-3-D-galactopyranoside to the fluorescence hydrolyzed product 4-methylumbellifrone at pH 6 was assessed using previously published procedure (Gary and kindell 2005).
CFs were transfected with caveolin-1-pCMV(pCMV-Cav-1) or its vector control (pCMV-GRP), whereas DFs were rendered caveolin-1 deficient (Cav-1 siRNA) using siRNA-based technique. […] Most of the assays were performed in triplicate, and the data was expressed as the means±SEM of at least three independent experiments […]

[4] = system: chronic oxidative stress fibroblasts (OS-CFs); test: Premature senescence in chronic oxidative stress fibroblasts; assay type: cell-based, Wistar rat
Procedure: as §1
Oxidatively-stressed CFs (OS-CFs). A heightened state of oxidative stress and premature senescence in CFs were induced using hydrogen peroxide (HP) as a stressor. The HP treatment was conducted by seeding approximately 1×10^6 cells in a T75 tissue culture flask. Twenty-four hours later, the cells were exposed to a sublethal dose of HP (150 μM) for 2 hours, washed 2× with PBS and after 4 days of culturing in HP free medium; they were split in a 1:2 ratio, and then the aforementioned protocol was repeated again for cells receiving the second and third HP treatment. A third passage HP-treated CFs denoted in the current study as (OS-CFs) together with the corresponding CFs and DFs were used in most of the assays outlined below.

[5] = system: control fibroblasts (CFs); test: In vitro scratch wound (cell migration) in control fibroblasts; assay type: cell-based, Wistar rat; conditions: 24 hrs post-injury
Procedure: as §2, with “Cell culture and HP treatment. […] Assessment” for “Assessment”, “literature […] Caveolin-1 protein expression and PDGF-induced phosphorylation of Akt (20 min) and ERK (10 min) in 24-hr serum starved fibroblasts were determined using a Western-blotting-based technique. A proliferation index encompassing BrdU incorporation into DNA and cell cycle progression was evaluated in response to various growth factors (e.g., IGF, 50 ng; PDGF, 1 nM; EGF, 100 ng) in 24-hr serum starved fibroblast. An in vitro wound-healing model conducted by scratching starved confluent cultured fibroblasts with a pipette tip was used to monitor the impact of PDGF on cell migration. […] In serum-induced proliferating cells in CFs, the optical density at 450 nm (OD450) was more than 10-fold higher than that observed for starved cells.” for “literature”

[6] = system: control fibroblasts (CFs); test: BrdU incorporation into DNA (cell proliferation) in control fibroblasts; assay type: cell-based, Wistar rat; conditions: 24-hr serum starved CFs, vs starved cells; dose providing the maximum response (IGF 50 ng, PDGF 1 nM, EGF 100 ng)
Procedure: Cell culture and HP treatment. […] Assessment of key fibroblast functions essential for wound healing. To assess cell proliferation, fibroblasts were seeded into a 96-well plate at a density of 1×10^4 per well and were allowed to adhere overnight in DMEM medium supplemented with 10% FCS. After arrest by incubation in serum-free medium for 24 hours, the cells were exposed to growth factors, and the incorporation of bromodeoxyuridine (BrdU) into DNA was determined using the manufacturer's protocol (Roche Diagnostics). Similarly, for the in vitro wound (migration) experiments, cultured fibroblasts were grown in six-well plates until they reached confluence. The medium was removed, the cells were washed with PBS 3× before culturing was continued in serum-free DMEM containing 0.5% BSA for an additional 24 hours. […] The rate of wound healing was quantified as described in the literature […] Caveolin-1 protein expression and PDGF-induced phosphorylation of Akt (20 min) and ERK (10 min) in 24-hr serum starved fibroblasts were determined using a Western-blotting-based technique. A proliferation index encompassing BrdU incorporation into DNA and cell cycle progression was evaluated in response to various growth factors (e.g., IGF, 50 ng; PDGF, 1 nM; EGF, 100 ng) in 24-hr serum starved fibroblast. […]

Question: For `CC1(C)[C@@H](O)CC[C@]2(C)[C@H]3C(=O)C=C4[C@H]5C[C@@](C)(C(=O)O)CC[C@]5(C)CC[C@@]4(C)[C@]3(C)CC[C@@H]12` [18α-GA, 18α-Glycyrrhetinic acid], which “rate of proliferation (BrdU incorporation into DNA)” value [1] is on record?
Answer: Its value is “increased rate of proliferation”.

Question: What about the “impaired wound healing (rate of wound closure)” value [2] of the same compound?
Answer: The value was “ameliorate impaired wound healing”.

Question: And the premature senescence ([3]; DFs)?
Answer: Its premature senescence is “can be reversed”.

Question: And the “level/activity of SA-β-gal” value ([3]; treated DFs compared with DFs)?
Answer: The value was “significantly lower level”.

Question: What about the premature senescence [4] of the same compound?
Answer: Its premature senescence is “can be reversed”.

Question: With IGF: mitotic growth factor as the compound, how does the “number of cells that migrated into the cell-free wound zone” value [5] read?
Answer: Its value is “markedly increased”.

Question: And the “increase of proliferation rate (BrdU incorporation)” value [6]?
Answer: Its value is ~6.7 fold.

Question: PDGF was tested. Which “number of cells that migrated into the cell-free wound zone” value [5] did it give?
Answer: Its value is “markedly increased”.

Question: And the “relative potency on cell migration among growth factors” value [5]?
Answer: The value was “most potent among them”.

Question: And the “increase of proliferation rate (BrdU incorporation)” value [6]?
Answer: Its value is “approximately 10 fold”.
